Experimental data taken from publication PMC10535199, “A Combined Experimental and Computational Study of Novel Benzotriazinone Carboxamides as Alpha-Glucosidase Inhibitors” (Molecules, 2023).

What was measured:
Alpha-glucosidase = molecular target: T1, Alpha-glucosidase (Saccharomyces cerevisiae, UniProt P53341); assay: biochemical; settings: for inhibition at 500 µM: pH 6.8, read-out: Inhibition (%) at 0.5 mM; for IC50: pH 6.8, 30 min incubation
T1 construct: purchased 5003-1KU Type I
Procedure: The alpha-glucosidase inhibitory assay was performed by adopting the method of Pierre et al., with minor modifications. Alpha-glucosidase (Cat No. 5003-1KU Type I) belonging to Saccharomyces cerevisiae was selected for this protocol because its structure and function were similar to yeast and mammalian enzymes. In test tubes, 10 μL of test compound (0.5 mM), 70 μL of saline phosphate buffer (50 mM) to adjust pH at 6.8, and 10 μL of α-glucosidase enzyme (0.0234 units) were added to prepare […] assay mixture. A quantity of 10 μL p-nitrophenyl-α-D-glucopyranoside (0.5 mM, N1377 from Sigma, Burlington, MA, USA) was added to initiate the reaction and tubes were incubated for 30 min. […] Free substrate change in absorbance was monitored at 400 nm. The alpha-glucosidase inhibitory activity was calculated as percentage inhibition by using formula:% Inhibition = [(Abs. of control − Abs. of test)/Abs. of control] × 100
IC50 values were determined using EZ-Fit enzyme kinetics software version 5.03 (Perrella Scientific Inc. Amherst, Amherst, MA, USA).

T1 sequence (P53341 whole entry): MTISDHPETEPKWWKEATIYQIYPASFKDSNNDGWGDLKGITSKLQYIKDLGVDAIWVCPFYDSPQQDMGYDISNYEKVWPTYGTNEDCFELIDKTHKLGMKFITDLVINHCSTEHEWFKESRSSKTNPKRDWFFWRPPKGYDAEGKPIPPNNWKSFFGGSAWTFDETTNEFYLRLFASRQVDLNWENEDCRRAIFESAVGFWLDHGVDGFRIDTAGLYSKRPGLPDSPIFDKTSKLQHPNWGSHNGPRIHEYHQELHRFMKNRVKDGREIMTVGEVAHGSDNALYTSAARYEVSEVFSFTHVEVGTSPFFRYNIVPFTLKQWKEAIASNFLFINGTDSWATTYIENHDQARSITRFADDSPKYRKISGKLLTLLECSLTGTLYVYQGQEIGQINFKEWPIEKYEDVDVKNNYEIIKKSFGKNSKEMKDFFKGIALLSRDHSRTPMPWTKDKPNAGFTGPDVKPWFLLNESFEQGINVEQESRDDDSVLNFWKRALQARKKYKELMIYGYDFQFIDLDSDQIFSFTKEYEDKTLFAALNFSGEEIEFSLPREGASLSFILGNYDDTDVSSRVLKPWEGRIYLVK

## CCCNC(=O)CCCn1nnc2ccccc2c1=O [14a, N-propyl-4-(4-Oxobenzo[1,2,3]triazin-3(4H)-yl)butanamide]
other
  melting point: 127 to 128 °C
Alpha-glucosidase
  inhibition at 500 µM: 39.13 ± 0.19%

## CCCCNC(=O)CCCn1nnc2ccccc2c1=O [14b, N-Butyl-4-(4-oxobenzo[1,2,3]triazin-3(4H)-yl)butanamide]
other
  melting point: 123 to 124 °C
Alpha-glucosidase
  IC50: 243.41 ± 0.18 µM
  inhibition at 500 µM: 67.53 ± 0.14%

## CCCCCNC(=O)CCCn1nnc2ccccc2c1=O [14c, N-pentyl-4-(4-Oxobenzo[1,2,3]triazin-3(4H)-yl)butanamide]
other
  melting point: 106 to 107 °C
Alpha-glucosidase
  inhibition at 500 µM: 42.34 ± 0.25%

## CCCCCCNC(=O)CCCn1nnc2ccccc2c1=O [14d, N-Hexyl-4-(4-oxobenzo[1,2,3]triazin-3(4H)-yl)butanamide]
other
  melting point: 102 to 103 °C
Alpha-glucosidase
  IC50: 335.04 ± 0.07 µM
  inhibition at 500 µM: 66.2 ± 0.11%

## CCCCCCCNC(=O)CCCn1nnc2ccccc2c1=O [14e, N-Heptyl-4-(4-oxobenzo[1,2,3]triazin-3(4H)-yl)butanamide]
other
  melting point: 100 to 101 °C
Alpha-glucosidase
  inhibition at 500 µM: 40.23 ± 0.21%

## CCCCCCCCNC(=O)CCCn1nnc2ccccc2c1=O [14f, N-Octyl-4-(4-oxobenzo[1,2,3]triazin-3(4H)-yl)butanamide]
other
  melting point: 95 to 96 °C
Alpha-glucosidase
  inhibition at 500 µM: 30.57 ± 0.16%

## Cc1cc(C)cc(NC(=O)CCCn2nnc3ccccc3c2=O)c1 [14g, N-(3,5-Dimethylphenyl)-4-(4-oxobenzo[1,2,3]triazin-3(4H)-yl)butanamide]
other
  melting point: 110 to 111 °C
Alpha-glucosidase
  IC50: 196.52 ± 0.08 µM
  inhibition at 500 µM: 78.32 ± 0.18%

## O=C(CCCn1nnc2ccccc2c1=O)Nc1ccc(Br)cc1 [14h, N-(4-Bromophenyl)-4-(4-oxobenzo[1,2,3]triazin-3(4H)-yl)butanamide]
other
  melting point: 115 to 116 °C
Alpha-glucosidase
  IC50: 238.15 ± 0.15 µM
  inhibition at 500 µM: 74.25 ± 0.27%

## O=C(CCCn1nnc2ccccc2c1=O)Nc1ccc(Cl)cc1 [14i, N-(4-Chlorophenyl)-4-(4-oxobenzo[1,2,3]triazin-3(4H)-yl)butanamide]
other
  melting point: 144 to 145 °C
Alpha-glucosidase
  IC50: 163.29 ± 0.13 µM
  inhibition at 500 µM: 82.77 ± 0.2%

## O=C(CCCn1nnc2ccccc2c1=O)Nc1cccc(Cl)c1 [14j, N-(3-Chlorophenyl)-4-(4-oxobenzo[1,2,3]triazin-3(4H)-yl)butanamide]
other
  melting point: 209 to 210 °C
Alpha-glucosidase
  IC50: 52.01 ± 0.07 µM
  inhibition at 500 µM: 89.35 ± 0.21%

## Cc1ccc(NC(=O)CCCn2nnc3ccccc3c2=O)cc1 [14k, N-(4-methylphenyl)-4-(4-Oxobenzo[1,2,3]triazin-3(4H)-yl)butanamide]
other
  melting point: 175 to 176 °C
Alpha-glucosidase
  IC50: 27.13 ± 0.12 µM
  inhibition at 500 µM: 94.18 ± 0.23%

## Cc1cccc(NC(=O)CCCn2nnc3ccccc3c2=O)c1 [14l, N-(3-methylphenyl)-4-(4-Oxobenzo[1,2,3]triazin-3(4H)-yl)butanamide]
other
  melting point: 105 to 106 °C
Alpha-glucosidase
  IC50: 32.14 ± 0.11 µM
  inhibition at 500 µM: 92.63 ± 0.12%

## COc1ccccc1NC(=O)CCCn1nnc2ccccc2c1=O [14m, N-(2-Methoxyphenyl)-4-(4-oxobenzo[1,2,3]triazin-3(4H)-yl)butanamide]
other
  melting point: 139 to 140 °C
Alpha-glucosidase
  IC50: 121.3 ± 0.15 µM
  inhibition at 500 µM: 84.31 ± 0.18%

## COc1ccc(NC(=O)CCCn2nnc3ccccc3c2=O)cc1 [14n, N-(4-Methoxyphenyl)-4-(4-oxobenzo[1,2,3]triazin-3(4H)-yl)butanamide]
other
  melting point: 147 to 148 °C
Alpha-glucosidase
  IC50: 75.37 ± 0.14 µM
  inhibition at 500 µM: 87.46 ± 0.15%
